In series [1] the test system is ovariectomised mature rats. Briefly: Prevention of bone loss in ovariectomised mature rats. The class given is in vivo, rat. To be noted: % prevention of bone loss versus vehicle treated animals. The source says: Prevention of bone loss in ovariectomised mature rats. The methodology employed is based on that described by Wronsky et al. [J. Bone Min. Res., 6, 387 (1991)]. The bone loss, prevalently cancellous, occuring after the surgery is monitored by dual emission X-ray absorptiometry (DEXA) measurements of bone mineral density (BMD) of long bones and by HPLC measurements of urinary levels of products of bone collagen breakdown, such as the cross-link residues pyridinoline (PYD), deoxypyridinoline (DPD) and lysine glycosides, i.e. galactosyl-hydroxylysine (GHYL) and glucosyl-galactosyl-hydroxylysine (GGHYL). Groups of 7-10 female Sprague-Dawley rats, about 90 days old and weighing 200-250 g are used. Rats are anesthetised by sodium pentobarbital (35 mg/kg i.v.), laparotomy is performed and ovaries are bilaterally removed. Wounds are adequately disinfected and sutured. A group is sham operated. […] Before and at the end of the experimental period, the bone metaphyseal mineral densities of left distal femur and proximal tibia were evaluated in vivo using lightly anaesthetised animals. Results are expressed as % of prevention of bone loss versus vehicle treated animals, using the following equation, where BMD indicates the bone mineral density at the end of the experimental period and is expressed as the percent of pre-ovariectomy baseline: [formula] […]

The target of series [2] is bafilomycin-sensitive ATPase in chicken osteoclasts (Gallus gallus, UniProt A0A8V0Z1D5+Q9I8C8). Briefly: Inhibition of bafilomycin-sensitive ATPase in chicken osteoclasts. In kind it is biochemical. As for the experimental part: Vesicles were prepared from medullar bone obtained from tibiae and femurs of egg-laying hens which were calcium-starved for at least 15 days. Briefly, bone fragments were scraped with a 24 scalpel blade, suspended in 40 ml of isolation medium (0.2 M sucrose, 50 mM KCl, 10 mM Hepes, 1 mM EGTA, 2 mM dithiotheitrol, pH 7.4) and filtered through a 100 μm pore size nylon mesh. The whole procedure was performed at 4° C. After homogenisation in a potter (20 strokes) in 40 ml of isolation medium an initial centrifugation (6,500×gmax×20 min) was performed to remove mitochondria and lysosomes. The supernatant was centrifuged at 100,000×gmax for 1 hr and the pellet was collected in 1 ml of isolation medium, divided into 200 μl aliquots, immediately frozen in liquid nitrogen and stored at −80° C. The protein content was determined using a Biorad colourimetric kit according to Bradford [M. Bradford, Anal. Biochem., 72, 248 (1976)]. For the proton transport assay, 5-10 μl of membranes were used.
Chain of bafilomycin-sensitive ATPase in chicken osteoclasts (Q9I8C8 entry or part of it): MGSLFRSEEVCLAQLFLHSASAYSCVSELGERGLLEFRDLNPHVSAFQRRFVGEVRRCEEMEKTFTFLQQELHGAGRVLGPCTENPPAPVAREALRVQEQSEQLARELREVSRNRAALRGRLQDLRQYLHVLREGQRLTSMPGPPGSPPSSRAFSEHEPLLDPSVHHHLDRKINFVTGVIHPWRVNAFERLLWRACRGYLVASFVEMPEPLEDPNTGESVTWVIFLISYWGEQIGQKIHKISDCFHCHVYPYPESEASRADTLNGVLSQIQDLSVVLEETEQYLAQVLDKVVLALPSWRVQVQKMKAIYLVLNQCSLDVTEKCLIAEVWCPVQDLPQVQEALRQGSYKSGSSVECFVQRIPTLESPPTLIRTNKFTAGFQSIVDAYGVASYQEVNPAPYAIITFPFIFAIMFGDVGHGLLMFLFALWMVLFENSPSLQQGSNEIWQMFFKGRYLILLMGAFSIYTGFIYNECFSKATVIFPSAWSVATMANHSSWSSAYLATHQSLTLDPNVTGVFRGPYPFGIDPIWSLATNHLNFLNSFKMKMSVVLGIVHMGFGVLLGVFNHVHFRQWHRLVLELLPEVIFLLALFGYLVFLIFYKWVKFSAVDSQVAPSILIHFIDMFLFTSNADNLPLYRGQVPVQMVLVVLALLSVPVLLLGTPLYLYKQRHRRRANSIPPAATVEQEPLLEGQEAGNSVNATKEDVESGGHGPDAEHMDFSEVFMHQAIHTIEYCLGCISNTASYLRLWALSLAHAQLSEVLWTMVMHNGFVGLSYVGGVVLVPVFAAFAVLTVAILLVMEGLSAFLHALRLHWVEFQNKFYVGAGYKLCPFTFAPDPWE
Chain of bafilomycin-sensitive ATPase in chicken osteoclasts (P49712 whole entry, further chain, the tested form may be a part): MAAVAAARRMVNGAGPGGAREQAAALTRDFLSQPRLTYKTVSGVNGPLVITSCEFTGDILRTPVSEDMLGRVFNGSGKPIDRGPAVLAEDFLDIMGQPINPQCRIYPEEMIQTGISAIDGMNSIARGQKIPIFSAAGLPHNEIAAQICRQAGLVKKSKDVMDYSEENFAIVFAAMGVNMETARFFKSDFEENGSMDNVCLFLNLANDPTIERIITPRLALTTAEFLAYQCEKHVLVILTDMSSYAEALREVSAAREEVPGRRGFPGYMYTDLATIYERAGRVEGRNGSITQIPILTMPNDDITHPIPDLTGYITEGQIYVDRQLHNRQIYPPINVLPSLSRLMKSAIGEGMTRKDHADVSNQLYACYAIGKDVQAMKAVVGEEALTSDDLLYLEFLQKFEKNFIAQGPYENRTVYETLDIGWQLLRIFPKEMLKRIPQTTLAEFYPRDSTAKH
Chain of bafilomycin-sensitive ATPase in chicken osteoclasts (Q5ZHL0 whole entry, further chain, the tested form may be a part): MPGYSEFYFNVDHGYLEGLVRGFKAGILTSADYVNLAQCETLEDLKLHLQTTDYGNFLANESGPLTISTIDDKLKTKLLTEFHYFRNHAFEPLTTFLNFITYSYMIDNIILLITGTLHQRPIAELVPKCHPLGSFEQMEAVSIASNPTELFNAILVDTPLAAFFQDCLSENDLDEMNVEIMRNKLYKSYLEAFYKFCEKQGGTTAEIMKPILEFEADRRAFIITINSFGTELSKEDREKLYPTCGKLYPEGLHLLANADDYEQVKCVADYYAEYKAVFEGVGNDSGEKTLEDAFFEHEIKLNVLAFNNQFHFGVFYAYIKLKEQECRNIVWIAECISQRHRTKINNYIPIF
Chain of bafilomycin-sensitive ATPase in chicken osteoclasts (Q90647 whole entry, further chain, the tested form may be a part): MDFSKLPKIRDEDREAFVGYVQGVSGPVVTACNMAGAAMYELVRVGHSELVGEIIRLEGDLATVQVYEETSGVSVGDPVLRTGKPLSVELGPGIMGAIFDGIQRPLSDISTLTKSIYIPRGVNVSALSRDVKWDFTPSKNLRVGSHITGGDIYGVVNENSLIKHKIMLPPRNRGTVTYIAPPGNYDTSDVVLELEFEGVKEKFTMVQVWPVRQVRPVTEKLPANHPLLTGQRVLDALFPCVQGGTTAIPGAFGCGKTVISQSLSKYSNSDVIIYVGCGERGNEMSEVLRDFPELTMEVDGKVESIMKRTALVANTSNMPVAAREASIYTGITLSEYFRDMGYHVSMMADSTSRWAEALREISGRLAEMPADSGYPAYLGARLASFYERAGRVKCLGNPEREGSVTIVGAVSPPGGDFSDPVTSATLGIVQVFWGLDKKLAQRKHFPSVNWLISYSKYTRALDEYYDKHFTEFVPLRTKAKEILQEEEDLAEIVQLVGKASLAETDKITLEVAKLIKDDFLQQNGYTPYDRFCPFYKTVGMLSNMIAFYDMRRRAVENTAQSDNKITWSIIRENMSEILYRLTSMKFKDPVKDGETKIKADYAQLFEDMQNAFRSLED
Chain of bafilomycin-sensitive ATPase in chicken osteoclasts (A0A8V0Z1D5 entry or part of it): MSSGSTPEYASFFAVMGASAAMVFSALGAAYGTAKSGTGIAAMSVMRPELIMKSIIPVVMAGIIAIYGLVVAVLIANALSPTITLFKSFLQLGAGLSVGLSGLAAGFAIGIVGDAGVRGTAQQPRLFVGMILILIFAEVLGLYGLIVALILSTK
Purification of osteoclast membranes. 1 ml of crude microsomal vesicles prepared above were applied (about 0.2 ml per tube) on the top of a sucrose step-gradient consisting of 3.5 ml of 15%, 30% and 45% (w/w) sucrose in isolation medium and centrifuged at 280,000 gmax for 2 hours (SW 41 Ti rotor). After centrifugation the 30-45% sucrose interfaces were collected, diluted approx. 20-fold in isolation medium and pelletted at 100,000 gmax for 1 hour (SW 28 rotor). The pellet was then resuspended in 1 ml of isolation medium, aliquoted and frozen in liquid N2 and stored at −80° C. until used.
Inhibition of bafilomycin-sensitive ATPase activity was assessed in purified membrane vesicles by measuring the release of inorganic phosphate (Pi) during 30 min of incubation at 37° C. in a 96-well plate either in the presence or in the absence of bafilomycin A1. The reaction medium contained 1 mM ATP, 10 mM HEPES-Tris pH 8, 50 mM KCl, 5 uM valinomycin, 5 uM nigericin, 1 mM CDTA-Tris, 100 uM ammonium molybdate, 0.2 M sucrose and membranes (20 ug protein/ml). The reaction was initiated by MgSO4 (8-arm pipette) and stopped, after 30 min, by addition of 4 volumes of the malachite green reagent (96-arm pipette) prepared according to Chan [Anal. Biochem. 157, 375 (1986)]. Absorbance at 650 nm was measured after 2 min using a microplate reader. Results are expressed as μmol (Pi)×mg protein^−1×hour^−1 and, for each experiment, represent the mean±sem of triplicates.

The next series deals with human osteoclasts. Briefly: Human Osteoclast Resorption Assay. In kind it is cell-based. To be noted: human osteoclasts on bone slices. The protocol:
1) Bone resorption by disaggregated rat osteoclasts can be assessed as described previously in the literature [T. J. Chambers et al., Endocrinology, 1985, 116, 234]. Briefly, osteoclasts were mechanically disaggregated from neonatal rat long bones into Hepes-buffered medium 199 (Flow, UK). The suspension was agitated with a pipette, and the larger fragments were allowed to settle for 30 sec. The cells were then added to two wells of a multiwell dish containing bone slices (each measuring 12 mm^2). After 15 min at 37° C. the bone slices were removed, washed in medium 199 and placed in individual wells of a 96-well plate. […] The number of osteoclasts and bone resorption were quantified by confocal laser scanning microscopy (CLSM): the bone slices were fixed with 2% glutaraldehyde in 0.2 M cacodylate buffer and the osteoclasts on each bone slice were stained for tartrate-resistant acid phosphatase. […] The number and the size of the osteoclastic excavations, the plain area and the volume of bone resorbed was recorded. Results were expressed as mean pit number per bone slice, mean pit number per osteoclast, mean area per osteoclast or mean volume per osteoclast.
2) Bone resorption by human osteoclasts can be assessed using a modification of the method above. […] Bone slices were then treated and analysed as described above for the rat osteoclast assay.

A further series concerns osteoclast proton pump. To be noted: avian osteoclast membrane vesicles; cited from earlier work.
The subject of another series is osteoclast cultures. To be noted: cited from earlier work.
Where [3] appears, read: chicken osteoclast membranes, read-out: IC50 (nM) ATPase assay.
Setting [4] is: read-out: IC50 (nM) ATPase assay, chicken osteoclast membranes.

Structures can show the parent of a compound that is named as a salt. Where two headings read alike, the source gives them in different places.

Consider `COC(=CC=Cc1cc2cc(Cl)c(Cl)cc2[nH]1)C(=O)NCCCN1C(C)CN(c2ncccn2)CC1C` (stereo not shown) (as salt: hydrochloride) [Example 62, (2Z,4E)-5-(5,6-Dichloro-1H-indol-2-yl)-N-[3-[2,6-dimethyl-4-(2-pyrimidinyl)plperazin-1-yl]propyl]-2-methoxy-2,4-pentadienamide hydrochloride], for which the melting point (commonly the temperature, or range, at which the solid turns liquid) amounted to 245 °C. Turning to `CO/C(=C\C=C\c1cc2cc(Cl)c(Cl)cc2[nH]1)C(=O)NC1CC(C)(C)N(C)C(C)(C)C1` [Example 1, (2Z,4E)-5-(5,6-Dichloro-1H-indol-2-yl)-2-methoxy-N-(1,2,2,6,6-pentamethylpiperidin-4-yl)-2,4-pentadienamide], the “Protection of bone loss in ovariectomised mature rats at 10 mg/kg p.o.” value in series [1] is listed as 76%. For the same molecule, the IC50 (usually the concentration that gives 50% inhibition) was determined as 24 nM in series [2] (setting [3]) and 3.4 nM in the series with human osteoclasts. With `CO/C(=C\C=C\c1cc2cc(Cl)c(Cl)cc2[nH]1)C(=O)NC1CCCC(N(C)C)C1` (stereo not shown) [Example 61, (2Z,4E)-5-(5,6-Dichloro-1H-indol-2-yl)-N-(3-dimethylamino-cyclohexyl)-2-methoxy-2,4-pentadienamide], the melting point was in the range of 200 to 201 °C. In addition, the IC50 in series [2] (setting [3]) stood at 41 nM. Turning to `COC(=CC=Cc1cc2cc(Cl)c(Cl)cc2[nH]1)C(=O)NCCCN1C(C)CN(c2ncccn2)CC1C` (stereo not shown) [Example 62, (2Z,4E)-5-(5,6-Dichloro-1H-indol-2-yl)-N-[3-[2,6-dimethyl-4-(2-pyrimidinyl)plperazin-1-yl]propyl]-2-methoxy-2,4-pentadienamide hydrochloride], the IC50 in series [2] (setting [3]) came to 30 nM. Molecule `CO/C(=C\C=C\c1cc2cc(Cl)c(Cl)cc2[nH]1)C(=O)NCCCN1CCN(c2ccccc2)CC1` [Example 64, (2Z,4E)-5-(5,6-Dichloro-1H-indol-2-yl)-2-methoxy-N-(3-[-4-(phenyl)piperazin-1-yl]propyl] 2,4-pentadienamide] had a melting point of 223 to 225 °C. The IC50 in series [2] (setting [4]) is 67 nM. For `CO/C(=C\C=C\c1cc2cc(Cl)c(Cl)cc2[nH]1)C(=O)NCCCN1CCN(c2cccc(Cl)c2)CC1` [Example 68, (2Z,4E)-5-(5,6-Dichloro-1H-indol-2-yl)-N-[3-[-4-(3-chlorophenyl)piperazin-1-yl]propyl]-2-methoxy-2,4 pentadienamide], in that order: 192 to 193 °C and 18 nM. `CO/C(=C\C=C\c1cc2cc(Cl)c(Cl)cc2[nH]1)C(=O)NCCCN1CCCN(c2ncccn2)CC1` [Example 74, (2Z,4E)-5-(5,6-Dichloro-1H-indol-2-yl)-N-[3-[4-(2-pyrimidinyl)homopiperazin-1-yl]propyl]-2-methoxy-2,4-pentadienamide] came in with a melting point of 220 to 222 °C. Moreover, the IC50 in series [2] (setting [3]) worked out at 42 nM. On to `CO/C(=C\C=C\c1cc2cc(Cl)c(Cl)cc2[nH]1)C(=O)NCCCN1CCN(c2ccccn2)CC1` [Example 75, (2Z,4E)-5-(5,6-Dichloro-1H-indol-2-yl)-N-[3-[4-(2-pyridyl)piperazin-1-yl]propyl]-2-methoxy-2,4-pentadienamide], for which the melting point fell in the range of 219 to 220 °C. Also, the IC50 in series [2] (setting [3]) stood at 30 nM. With `CCN1C(=O)C=CC1=O` [N-ethylmaleimide], the “inhibition of proton transport by the osteoclast proton pump” value (“inhibition of proton transport” for short) in the series with osteoclast proton pump is “inhibited”. For the molecule `Cc1nc2c(OCc3ccccc3)cccn2c1CC#N` [SCH 28080], the “inhibition of proton transport” value in the series with osteoclast proton pump is “not inhibited”. For `CO/C1=C\C(C)=C\[C@@H](C)[C@@H](O)[C@@H](C)C/C(C)=C/C=C/[C@H](OC)[C@@H]([C@@H](C)[C@@H](O)[C@H](C)[C@@]2(O)C[C@@H](O)[C@H](C)[C@@H](C(C)C)O2)OC1=O` [bafilomycin A1], in the series with osteoclast proton pump, the “inhibition of proton transport” value is “inhibited”. Besides, the “inhibition of bone resorption in osteoclast cultures” value in the series with osteoclast cultures was “able to inhibit”. In the case of `C[C@@H]1O[C@@H](O[C@H]2C[C@@H](O)[C@]3(CO)[C@H]4[C@H](O)C[C@]5(C)[C@@H](C6=CC(=O)OC6)CC[C@]5(O)[C@@H]4CC[C@]3(O)C2)[C@H](O)[C@H](O)[C@H]1O` [ouabain], the “inhibition of proton transport” value in the series with osteoclast proton pump was “not inhibited”.

On to `[Na+].[Na+].[Na+].[O]=[V]([O-])([O-])[O-]` [sodium orthovanadate], for which the “inhibition of proton transport” value in the series on osteoclast proton pump was “not inhibited”. As to “(2Z,4E)-5-(5,6-Dichloro-1H- indol-2-yl)-N-(2a beta, 4a alpha, 6 beta, 7a alpha- decahydro-pyrrolo[2.1.5- cd]indolizyn-6-yl)-2- methoxy-2,4- pentadienamide [Example 55]”, the concentration for half-maximal inhibition (IC50) in series [2] (setting [3]) amounted to 23 nM.

Source of the values: patent US6903117B2, “Indole derivatives for the treatment of osteoporosis” (Nikem Research S.R.L., priority 1996, dated 2005).
